PubChem BioAssay (NCI)
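48-hour exposure; five concentrations; linearly interpolated endpoints. Here, GI50 denotes the concentration required for 50% inhibition of growth. TGI is the concentration that stops growth completely.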

Legend:
Experiment in all cases: DTP human tumour cell line panel, 48 h
LOX IMVI melanoma = test system: LOX IMVI melanoma
SF-268 CNS = test system: SF-268 CNS
CAKI-1 renal = test system: CAKI-1 renal
MOLT-4 leukemia = test system: MOLT-4 leukemia
EKVX NSCLC = test system: EKVX NSCLC
SK-MEL-28 melanoma = test system: SK-MEL-28 melanoma
SW-620 colon = test system: SW-620 colon
SK-OV-3 ovarian = test system: SK-OV-3 ovarian
HCC-2998 colon = test system: HCC-2998 colon
HL-60(TB) leukemia = test system: HL-60(TB) leukemia

Compound | GI50 (LOX IMVI melanoma) [µM] | TGI (LOX IMVI melanoma) [µM] | TGI (SF-268 CNS) [µM] | GI50 (CAKI-1 renal) [µM] | GI50 (MOLT-4 leukemia) [µM] | GI50 (EKVX NSCLC) [µM] | TGI (EKVX NSCLC) [µM] | GI50 (SK-MEL-28 melanoma) [µM] | TGI (SK-MEL-28 melanoma) [µM] | GI50 (SW-620 colon) [µM] | TGI (SW-620 colon) [µM] | GI50 (SK-OV-3 ovarian) [µM] | TGI (SK-OV-3 ovarian) [µM] | GI50 (HCC-2998 colon) [µM] | TGI (HCC-2998 colon) [µM] | TGI (CAKI-1 renal) [µM] | TGI (MOLT-4 leukemia) [µM] | GI50 (SF-268 CNS) [µM] | TGI (HL-60(TB) leukemia) [µM] | GI50 (HL-60(TB) leukemia) [µM]
COc1cc2c(cc1OC)[C@@H]1[C@H](C2=O)c2ccc([N+](=O)[O-])cc2C(=O)N1CCCBr | 0.2 | 0.81 | > 39.4 | < 0.01 | < 0.018 | 1.78 | > 100 | 2.54 | > 100 | 0.213 | > 100 | 1.32 | > 100 | 2.66 | > 100 | – | – | – | – | –
O=c1c2ccccc2oc2nccnc12 | – | > 100 | > 100 | – | – | – | > 100 | – | > 100 | – | > 100 | – | > 100 | – | > 100 | > 100 | > 100 | – | – | –
O=C1C=Cc2cc3ccccc3c3cccc1c23 | 2.87 | 12.2 | 27 | 2.51 | 5.03 | 2.55 | 8.92 | 10.5 | > 100 | 5.22 | 72.9 | 19.5 | > 100 | 0.413 | 3.18 | 7.1 | > 100 | 4.55 | – | –
COc1cc2c3c(c1OC)C1(C=CC(=O)C=C1)CC3N(C(=O)OC(C)(C)C(Cl)(Cl)Cl)CC2 (configuration not stated) | – | 26.1 | 31.8 | – | – | – | 45.2 | – | – | – | 43.1 | – | 96.9 | – | – | 50.9 | 17.9 | – | 8.26 | –
CC(C)(C)NC(=O)C12C3C4C1C1C2C3C41I (configuration not stated) | – | > 100 | – | – | – | – | – | – | > 100 | – | > 100 | – | – | – | > 100 | > 100 | > 100 | – | > 100 | –
O=C1/C(=C/c2ccc(F)cc2)CN(Cc2cn(CCNc3ccnc4cc(Cl)ccc34)nn2)C/C1=C\c1ccc(F)cc1 | 0.474 | 1.72 | 2.91 | – | 2.38 | – | – | 1.74 | 3.13 | 0.366 | 1.39 | 1.6 | 3.02 | 1.19 | 2.55 | – | 7.08 | 1.52 | 4.97 | 1.41
CC(C)=CCNc1ncnc2c1ncn2C1OC(COP(=O)(O)O)C(O)C1O (configuration not stated) | 0.581 | 2.55 | > 100 | 3.6 | 4.22 | – | – | > 100 | > 100 | 3.89 | > 100 | 4.77 | > 100 | 10.7 | > 100 | > 67.7 | > 48.5 | 8.77 | 6.33 | 1.94
COC(=O)C1=C(O)C(C(=O)OC)[C@@]2(O)[C@@H](C(=O)OC)C(c3ccccc3C(F)(F)F)C[C@@H]1[C@@H]2C(=O)OC (some centres not stated) | – | – | 30.3 | 2.71 | 1.88 | 6.36 | 19.4 | 2.13 | 14.5 | 4.02 | 20.1 | 1.58 | 7 | 14.2 | 27.2 | 6.73 | 6.97 | 12.2 | – | –
